# Patent publication US20060106099A1, “Novel inhibitors of ubiquitin isopeptidases” (priority 2002, published 2006)
# Read-outs that look alike come from different tables or passages of the source.
# Columns and labels:
# [1] = system: cell lines with mutant/deleted p53; conditions: mean of 41-42 cell lines with mutant/deleted p53, cited from earlier work
# ubiquitin isopeptidases [2] = assay: Ubiquitin isopeptidase activity, z-LRGG-AMC substrate, lysates of treated RKO and HCT 116 cells; assay type: cell-based, human; conditions: cells treated 6, 20 or 60 μM, 12 h
# Procedure: RKO (upper) and HCT 116 ^+/+ cells (lower) were treated with DMSO vehicle, 6, 20, or 60 μM of Δ12-PGJ2, DBA, NSC-302979, or curcumin, 60 μM PGB1, 60 μM NSC-156236, or 60 μM DPTP for 12 h at 37° C. Cell lysates (0.5 mg/mL) from each treatment were incubated with the isopeptidase substrate, z-LRGG-AMC, for 3 h, 37° C. The amount of AMC cleaved by isopeptidase was determined fluorometrically, as described in Materials and Methods.
# The second assay used a fluorescent tetrapeptide, z-LRGG-AMC, as a substrate that mimics the carboxy-terminus of ubiquitin. Isopeptidase activity hydrolyzes the bond between the c-terminal glycine and the fluorophore. This tetrapeptide also undergoes slow proteolysis by the catalytic subunit of the proteasome. To minimize this background rate of proteolysis cell lysates were incubated with 30 μM MG115 for 30 minutes at 4° C., prior to substrate incubation (>90% proteasome inhibition). Cells were teeated as above, lysed in 250 μL of lysis buffer per sample, and adjusted protein concentration to 0.5 mg/mL prior to incubation with MG115. Next, z-LRGG-AMC substrate was added and fluorescence was quantified of the AMC moiety cleaved by isopeptidase action.
# HCT 116 −/− cells = assay: MTT cell viability assay, HCT 116 p53 −/− cells; conditions: read-out: Cytotoxic Potency (EC50) HCT −/−
# Procedure: (§5) Cell viability was measured with MTT reagent as described in materials and methods.
# (§6) Cell viability was detected by the MTT assay. Briefly, 1×10^5 cells were incubated per well of a sterile, 96-well assay plate with 0-60 μM of test compounds for 48 hours. MTT reagent was added to each well, final concentration of 0.5 mg/mL, and incubated for an additional 3 hours. The media was aspirated and remaining MTT reagent from each well and added 100 μL of HCl:isopropanol (1:24). The absorbance of each sample was measured at 405 nm.
# RKO-E6 cells = assay: MTT cell viability assay, RKO-E6 cells; conditions: for EC50: read-out: Cytotoxic Potency (EC50) RKO-E6
# HCT 116 +/+ cells = assay: MTT cell viability assay, HCT 116 p53 +/+ cells; conditions: for cell death in HCT 116 +/+ compared with HCT 116 −/− cells: isogenic pair; for EC50: read-out: Cytotoxic Potency (EC50) HCT +/+
# Procedure: as §5, §6
# p53 = p53 accumulation, ratio RKO-E6 cells/RKO cells (immunoblot, densitometry); assay type: cell-based, human; conditions: 6 h; etoposide 50 μM, MG115, NSC-302979, DBA 20 μM, others 60 μM
# Procedure: (§1) A) Accumulation of polyubiquitin. RKO-E6 cells were treated with DMSO vehicle for 24 h, 37° C., or with the concentrations of test compounds that gave 80% cell death (as determined by cell viability assay at 48 h) for 6, 12, or 24 h, 37° C. […] Schematic depicting p53 degradation via the proteasome pathway in RKO cells versus RKO-E6 cells. The activity of the HPV E6 oncoprotein hastens p53 degradation in RKO-E6 cells. ii. RKO and RKO-E6 cells were treated with vehicle, etoposide (50 μM), MG115 (20 μM), Δ12-PGJ2 (60 μM), NSC-302979 (20 μM, DBA (20 μM), curcumin (60 μM), PGB1 (60 μM), NSC-156236, (60 XM)or DPTP 60 μM for 6 h, 37° C. Lysates were fractionated by SDS-PAGE and their p53 content determined immunochemically. iii. p53 levels were measured by densitometry and the ratio of p53 protein in RKO-E6 cells/RKO cells calculated.
# (§2) The medium was removed and cells lysed in 50 mM Tris, pH 7.4, 100 mM NaCl, 2 mM EDTA with 0.1% SDS, 0.1% deoxycholate, 1× complete protease inhibitor mixture. Protein concentration was measured by the Bradford method. Equal portions of the total cell lysate were fractionated from each sample (12.5 μg of protein) by SDS-PAGE. Proteins were transferred to poly(vinylidene difluoride) blocked with 5% (w/v) nonfat dry milk in Trisbuffered saline [20 mM Tris-HCl, pH 7.5, 100 mM sodium chloride, 0.1% (v/v) Tween 20]. Proteins were detected immunochemically by using primary antibodies directed against p53 (1:4000) or ubiquitin (1:1000), followed by horseradish peroxidase-conjugated secondary antibodies (1:4000). Antigen-antibody complexes were detected with enhanced chemiluminescence reagents. Gels were scanned and quantified intensities using Kodak 1D Image Analysis Software.
# RKO cells = assay: MTT cell viability assay, RKO cells; conditions: 48 h; for cell death in RKO compared with RKO-E6 cells: isogenic pair; for EC50: read-out: Cytotoxic Potency (EC50) RKO
# Procedure: as §5, §6
# [3] = system: cell lines with Wild type p53; conditions: cited from earlier work
# ubiquitin isopeptidases [4] = assay: Ubiquitin isopeptidase activity, Ub-PEST substrate, lysates of treated RKO and HCT 116 cells; assay type: cell-based, human; conditions: cells treated 6, 20 or 60 μM, 12 h
# Procedure: A) Inhibition of isopeptidase proteolysis of Ub-PEST substrate. RKO and HCT 116 cells were treated with DMSO vehicle, 6, 20, or 60 μM of Δ12-PGJ2, DBA, NSC-302979, or curcumin, 60 μM PGB1, 60 μM NSC-156236, or 60 μM DPTP for 12 h, 37° C. Cell lysates from each treatment were incubated with Ub-PEST, as described in materials and methods. Samples were fractionated by SDS-PAGE and proteins detected with ubiquitin epitopes immunochemically (HCT 116 ^+/+ western blot shown as example of raw data). […] B) Inhibition of isopeptidase activity by test panel compounds. Isopeptidase activity was determined by measuring via densitometry, the amount of Ub generated by isopeptidase cleavage of Ub-PEST. Bar graph patterns are DMSO vehicle (black), Δ12-PGJ2 (hatched), DBA (horizontal lines), NSC-302979 (white), PGB1 (diagonally downward right lines), and NSC-156236 (diagonally downward left lines). The amount of Ub generated in the vehicle treated sample (panel A, lane 2) is arbitrarily designated 100%.
# Cellular isopeptidase enzymatic activity was measured with two assays that used different substrates. In one assay ubiquitin-PEST (Ub-PEST) was used, a full-length ubiquitin molecule with an 18 amino acid c-terminal peptide extension (total mass=10.5 kDa). Ubiquitin isopeptidases specifically cleave the 18 amino acid peptide extension, releasing full-length ubiquitin (8.5 kDa).
# Briefly, 6×10^5 cells were incubated with 0-60 μM of test compounds for 12 hrs. Cells were lysed in 50 μL of 25 mM HEPES, 5 mM EDTA, 0.1% CHAPS, 5 mM ATP, pH 7.5. The protein concentration of each sample was adjusted to 0.3 mg/mL and incubated with 50 μg/mL Ub-PEST for 45 minutes at 25° C. Under these conditions, Ub-PEST hydrolysis occurs at a linear rate. 20 μL samples were mixed with 20 μL 2× Laemmli buffer, boiled briefly, and fractionated by SDSPAGE. Isopeptidase activity was monitored by determining the amount of product (8.5 kDa ubiquitin) formation.
# [5] = system: polyubiquitin conjugates in RKO-E6 cells; assay: Accumulation of polyubiquitin in RKO-E6 cells (immunoblot); assay type: cell-based, human; conditions: EC80 or 60 μM, 6-24 h
# Procedure: as §1, §2
# HCT 116 (p53 wt) = assay: MTS cytotoxicity, HCT 116 (p53 wt); assay type: cell-based; conditions: Homo sapiens, 48 h
# Text: (§3) Cytotoxicity in Human Colon Tumor (HCT) Cell Lines. To determine if punaglandins elicit cytotoxicity independently of the tumor-suppressor p53, as do other dienone prostaglandins, several cytotoxicity assays were employed. First, cell death effects of all isolated punaglandins were investigated in pairs of isogenic colon cancer cell lines, the HCT 116^+/+ competent cell line and HCT 116^−/− null cell lines. HCT 116^+/+ cells are homozygous for p53^+/+ and p21^+/+; where as, HCT 116^−/− cells lack both alleles for p53 (p53^−/−) or p21 (p21^−/−).
# (§4) Each cell line was seeded simultaneously in 96-well plates and incubated for 24 h before treatment with individual punaglandins at various concentrations for 48 additional h. Cytotoxicity was determined using MTS and absorbances were recorded at 490 nm. Half maximal effective concentrations (EC50) and Log EC50s were calculated from a concentration-response curve generated using GraphPad Prism (Table 1).
# HCT 116 (p21 wt) = assay: MTS cytotoxicity, HCT 116 (p21 wt); assay type: cell-based; conditions: Homo sapiens, log of EC50 in μM, 48 h, read-out: Log EC50 +/− Standard Error of Log EC50, HCT 116 (p21 wt) (converted)
# Text: as §3, §4
# HCT 116 (p21^−/−) = assay: MTS cytotoxicity, HCT 116 (p21−/−); assay type: cell-based; conditions: Homo sapiens, log of EC50 in μM, 48 h, read-out: Log EC50 +/− Standard Error of Log EC50, HCT 116 (p21−/−) (converted)
# Text: as §3, §4
# HCT 116 (p53^−/−) = assay: MTS cytotoxicity, HCT 116 (p53−/−); assay type: cell-based; conditions: Homo sapiens, log of EC50 in μM, 48 h, read-out: Log EC50 +/− Standard Error of Log EC50, HCT 116 (p53−/−) (converted)
# Text: as §3, §4
# ubiquitin isopeptidases [6] = assay: In vitro isopeptidase activity in HCT 116 lysates, Ub-PEST; assay type: biochemical, human; conditions: HCT 116 lysates, 45 min
# Procedure: Isopeptidase Assay. It was hypothesized that the punaglandins would inhibit ubiquitin-isopeptidase activity of the proteasome pathway as does the prostaglandin, Δ^12-PGJ2 (1), but with greater potency because of the chlorinated C-10. To validate this theory, cellular isopeptidase enzymatic activity was measured in vitro after treatment with individual punaglandins, PNG 2 (6), PNG 3 (7), and Z-PNG 4 (9) and in vivo after individual treatment with PNG 4 (8) and PNG 6 (10). This activity was determined utilizing the simple isopeptidase substrate, ubiquitin-PEST (Ub-PEST), a full/length ubiquitin (Ub) molecule fused with an 18-amino acid C-terminal peptide extension that most isopeptidases use as a substrate. The polypeptide extension contains regions rich in Pro (P), Glu (E), Ser (S), and Thr (T) residues called PEST motifs that are responsible for rapid degradation of these and other unstable proteins. Ub isopeptidases specifically cleave this peptide extension, yielding free, full-length Ub. Both the fused Ub-PEST (10.5 kDa) and the cleaved, free Ub (8.5 kDa) can be observed via immunochemical detection.
# In Vitro Isopeptidase Activity. PNG 2 (6), PNG 3 (7), and Z-PNG 4 (9) were initially analyzed for isopeptidase activity in vitro in HCT 116 lysates. Cells were lysed with isopeptidase activity buffer and protein concentration adjusted to 0.3 mg/mL per sample. Each sample was subsequently incubated with 2 μM, 6 μM, 20 μM, 60 μM, or 200 μM of PNG 2 (6), PNG 3 (7), Z-PNG 4 (9), Δ^12-PGJ2 (1), and PGA1 (2) in addition to 50 μg/ml of Ub-PEST. Negative control cells were treated with vehicle (0.5% DMSO) and equivalent Ub-PEST. […] The amount of fused Ub-PEST and free Ub product was determined by SDS-PAGE fractionation.
compound,measurement,setting,value
"COc1cc(/C=C/C(=O)CC(=O)/C=C/c2ccc(O)c(OC)c2)ccc1O [Curcumin, curcumin]",CC50,[1]; read-out: Mutant p53 Mean LC50,68 µM
same,inhibition of z-LRGG-AMC hydrolysis by ubiquitin isopeptidases,ubiquitin isopeptidases [2],inhibited ubiquitin isopeptidase activity
same,EC50,"HCT 116 −/− cells; Homo sapiens, HCT-116, 48 h",8.6 ± 1.3 µM
same,EC50,"RKO-E6 cells; Homo sapiens, RKOE6, 48 h",14.9 ± 8.5 µM
same,"EC80, concentration that gave 80% cell death","RKO-E6 cells; cell viability assay at 48 h, RKO-E6 cells",17 µM
same,cell death in HCT 116 +/+ compared with HCT 116 −/− cells,"HCT 116 +/+ cells; 48 h, MTT",caused cell death with equal potency
same,EC50,"HCT 116 +/+ cells; Homo sapiens, HCT-116, 48 h",9.7 ± 1.1 µM
same,ratio of p53 protein [RKO-E6 cells/RKO cells],p53,approached unity
same,cell death in RKO compared with RKO-E6 cells,RKO cells; MTT,caused cell death with equal potency and efficacy
same,EC50,"RKO cells; Homo sapiens, RKO",12.5 ± 5.9 µM
same,p53 dependence in NCI 60 cell line cancer screening data,"[3]; analysis according to O'Connor et al., 1997",act independently of p53
same,inhibition of isopeptidase cleavage of Ub-PEST,ubiquitin isopeptidases [4],inhibited isopeptidase activity in a concentration dependent manner
same,cellular accumulation of polyubiquitin conjugates,[5],protein species with polyubiquitin conjugation accumulated in cells
"CC1=CC(=O)C2=C(C)CCC3C(C)C(=O)OC3C12 (stereo not drawn) [NSC-156236, achillin]",Mutant p53 Mean LC50,[1],Inactive
same,inhibition of z-LRGG-AMC hydrolysis by ubiquitin isopeptidases,ubiquitin isopeptidases [2],did not
same,EC50,"HCT 116 −/− cells; 48 h, MTT",> 60 µM
same,EC50,"RKO-E6 cells; 48 h, MTT",> 60 µM
same,cell death in HCT 116 +/+ compared with HCT 116 −/− cells,"HCT 116 +/+ cells; 48 h, MTT",did not cause significant cell death
same,EC50,"HCT 116 +/+ cells; 48 h, MTT",> 60 µM
same,ratio of p53 protein [RKO-E6 cells/RKO cells],p53,significantly less than unity
same,cell death in RKO compared with RKO-E6 cells,RKO cells; MTT,did not cause significant cell death
same,EC50,RKO cells; MTT,> 60 µM
same,cytotoxic activity in NCI 60 cell line cancer screening data,[3],no appreciable cytotoxic activity
same,Wild Type p53 Mean LC50,[3]; mean of 18 cell lines with wild type p53,Inactive
same,inhibition of isopeptidase cleavage of Ub-PEST,ubiquitin isopeptidases [4],did not inhibit isopeptidase activity
same,cellular accumulation of polyubiquitin conjugates,[5],did not cause appreciable cellular accumulation of ubiquitin conjugates
CCCCC/C=C\C[C@@]1(O)C=C(Cl)C(=O)/C1=C\[C@H](OC(C)=O)[C@H](CCCC(=O)OC)OC(C)=O [Z-PNG 4],EC50,"HCT 116 (p53 wt); read-out: EC50, cytotoxicity in HCT 116 cell lines",0.03 µM
same,EC50,"HCT 116 (p53 wt); log of EC50 in μM, read-out: Log EC50 +/− Standard Error of Log EC50, HCT 116 (p53 wt) (converted)",0.0316 µM
same,EC50,HCT 116 (p21 wt),0.0295 µM
same,EC50,HCT 116 (p21^−/−),0.0324 µM
same,EC50,HCT 116 (p53^−/−),0.0269 µM
same,concentration at which inhibition of Ub-PEST degradation is initially observed,ubiquitin isopeptidases [6],20 µM
same,concentration of complete (total) inhibition of Ub-PEST degradation,ubiquitin isopeptidases [6],60 µM
